This data set is described as follows: molar enthalpy of vaporization or sublimation. The following applies: Crystal, Static calorimetry.

Numbers after ± are expanded uncertainties.

On to `O=C(O)c1ccc(C(=O)O)nc1` [2,5-pyridinedicarboxylic acid], for which, under “492 K”, the molar enthalpy worked out at 46.5 ± 1.29 kcal/mol. For the molecule `O=C(O)c1cccc(C(=O)O)n1` [pyridine-2,6-dicarboxylic acid], the molar enthalpy (494 K) was 40.2 ± 2.63 kcal/mol. Regarding `COC(=O)c1cccc(C(=O)OC)n1` [2,6-pyridinedicarboxylic acid, dimethyl ester], the molar enthalpy (385 K) turned out to be 31.1 ± 1.82 kcal/mol.

These data come from the NIST ThermoML archive (doi:10.1021/je049586l).
